For assay [1], the system named is Human peripheral blood mononuclear cells (PBMC). Briefly: PBMC screening assay, TNF-α in supernatant. It counts as cell-based. Conditions: 24 hours, TNF-α in supernatant by ELISA or HTRF. The method, then:
Human peripheral blood mononuclear cells (PBMC) were obtained from BenTek, frozen at 25×10^6 cell/mL in 10% DMSO (Sigma) prepared in fetal bovine serum (Gibco) and stored in liquid nitrogen. For culture PBMC were thawed quickly in a 37° C. water bath and diluted into pre-warmed RPMI 1640 (Lonza) supplemented with 10% fetal bovine serum, 2 mM glutamine, 50 μg/mL penicillin, 50 U/mL streptomycin (all from Gibco) and centrifuged for 5 minutes at 500×g. PBMC were suspended into the growth media described above and cultured at a concentration of 1×10^6 cells per mL at 37° C. in a 5% CO2 incubator.
PBMC were thawed, suspended at a concentration of 1×10^6 cell/mL in growth media and 200 μL was aliquoted into each well of a 96-well plate for a total of 0.2×10^6 cells per well. PBMC were incubated for 16-18 hours at 37° C. in a 5% CO2 humidified incubator. The following day PBMC plates were centrifuged at 500×g for 5 minutes and the growth media was removed. […] TNF-α activity was assessed in the supernatant by ELISA (eBioscience) or HTRF (CisBio) per the manufacturer's instructions. Optical density at 450 nm and 570 nm (ELISA) or luminescence (HTRF) was analyzed using an Envision (Perkin Elmer) plate reader, as shown in Table 5.
Background: In an ELISA, binding on a coated surface is turned into a signal by an enzyme label.

The subject of assay [2] is human monocytes injected intratumorally. Description: Antigen dependent monocyte activation in a mouse tumor model. The settings on record: 5-20 mg/kg intravenously. It counts as in vivo, NOD SCID mice. Here is the method:
Human monocytes were prepared as described above. Trop2^+ MDA-MB-453 cells or Trop2-MiaPaca2 were cultured by standard methods. A TLR8 benzazepine linker payload (LP) was prepared by attaching a MCC (N-maleimidomethyl]cyclohexane-1-carboxylate) linker in place of the mc-vc-PABA linker in Compound-Linker 2.1 to form Compound-Linker 2.22. TROP2-TLR8 benzazepine conjugates were prepared by conjugation of Compound-Linker 2.22 to a TROP2 antibody (sacituzumab) to form a conjugate with an average DAR of about 4.
On Day 1 NOD SCID mice were injected with 5×10^5 Trop2^+ MDA-MB-453 cells or Trop2-MiaPaca2 cells. Seven to ten days later when the tumor size reached about 300 mm^3, the mice were injected intravenously with 5-20 mg/kg of the TROP2-TLR8 benzazepine conjugate or TROP2 antibody alone. Sixteen hours later, 10^6 human monocytes were injected intratumorally. Four to six hours later, the tumors were harvested and digested. Monocytes were identified by staining for cell surface markers and monocyte activation was determined by intracellular staining for IL-6.

The EC50 is the concentration that produces a half-maximal response. A low value points to higher potency in that assay. In assay [1], `CCCN(CCC)C(=O)C1=Cc2ccc(C(=O)NC3C[C@@H]3c3ccccc3)cc2N=C(N)C1` (stereo partly shown) [Compound 1.28] yielded an EC50 of less than 500 nM. Same read-out and setting: for `CCCN(CCC)C(=O)C1=Cc2ccc(C(=O)Nc3ccc4c(c3)CN(C(=O)OCc3ccccc3)CC4)cc2N=C(N)C1` [Compound 1.30] the value was less than 500 nM. As for “control antibody: "TROP2 antibody alone" (sacituzumab) in Example 16; elsewhere the unconjugated parental aTROP2 or aHER2 antibody”, the “human monocyte activation (intracellular staining for IL-6)” value in assay [2] (mice having a TROP2-tumor (MiaPaca2)) and in assay [2] (mice having a TROP2^+ tumor (MDA-MB-453)) was “did not cause human monocyte activation” in each case.

The values are drawn from patent US10519131B2, “Benzazepine compounds, conjugates, and uses thereof” (SILVERBACK THERAPEUTICS, INC., priority 2017, dated 2019).
